{
  "source": "paper PMC3358459",
  "about": "(Journal of Pharmaceutical and Biomedical Analysis, 2012)",
  "key": {"Stability of R-": {"assay": "Stability of R-", "type": "in vitro ADME, human", "conditions": "for Remained concentration: human plasma with 20 mM glutathione, added concentration 3.585 μg/mL, n=3, Mean±S.D."}, "[1]": {"conditions": "cited from earlier work"}},
  "data": [
    {"compound": "Cc1cc2c(C(C)C)c(O)c(O)c(C=O)c2c(O)c1-c1c(C)cc2c(C(C)C)c(O)c(O)c(C=O)c2c1O", "note": "[R-(-)-gossypol]", "values": [
      {"measurement": "Effect of antioxidants on stability in plasma", "setting": "Stability of R-; 5 μg/mL in plasma with 20 mM reduced glutathione and 1% ascorbic acid, 4°C", "result": "can improve the stability"},
      {"measurement": "Remained concentration", "setting": "Stability of R-; -80°C, 1 month", "result": "111.8±5.6", "unit": "%"},
      {"measurement": "Remained concentration", "setting": "Stability of R-; on ice, 4hr", "result": "103.8±6.1", "unit": "%"},
      {"measurement": "Remained concentration", "setting": "Stability of R-; three freeze-thaw cycles", "result": "86.9±1.1", "unit": "%"},
      {"measurement": "Degraded in plasma", "setting": "Stability of R-; plasma, room temperature, over 24hr, compared to freshly prepared samples", "result": "more than 60%"},
      {"measurement": "Stability in mobile phase", "setting": "acetonitrile/water (80:20), 24hr at 4°C", "result": "good stability"}
    ]},
    {"compound": "Cc1cc2c(C(C)C)c(O)c(O)c(C=O)c2c(O)c1-c1c(C)cc2c(C(C)C)c(O)c(O)c(C=O)c2c1O", "note": "[gossypol]", "values": [
      {"measurement": "Stability of quality control plasma samples", "setting": "Stability of R-; plasma with 20 mM glutathione, -70°C for 1 month", "result": "stable"},
      {"measurement": "Freeze-thaw stability", "setting": "Stability of R-; plasma with 20 mM glutathione, after 3 cycles, lower concentration", "result": "significant degradation"},
      {"measurement": "Stability of quality control plasma samples", "setting": "Stability of R-; plasma with 20 mM glutathione, on ice for 4 hr", "result": "stable"},
      {"measurement": "Stability in acetonitrile", "setting": "[1]; acetonitrile", "result": "stable"},
      {"measurement": "Stability in methanol", "setting": "[1]; methanol, even at 5°C", "result": "decompose"},
      {"measurement": "Stability in solvents", "setting": "[1]; water, methanol, ethanol and alcoholic solvents", "result": "unstable"}
    ]},
    {"compound": "R-(-)-gossypol acetic acid", "values": [
      {"measurement": "Time stock solution was stable", "setting": "1mg/mL in acetonitrile, -70°C", "result": 3, "unit": "months"}
    ]}
  ]
}
